# Laboratory results from patent US8410302B2, “Methoxyimino compounds and fungicide composition comprising same” (Kyung Nong Corporation, priority 2007, dated 2013).
# Legend:
# Erysiphae graminis = assay: Fungicidal activity against barley powdery mildew (BPM) disease, control value; type: in vivo; details: barley powdery mildew
# [1] = system: Pyricularia oryzae Carvara KA301; assay: whole plant or invertebrate; type: in vivo; details: for RCB control value (C.V.): rice blast
# Botrytis cinerae = assay: Fungicidal activity against cucumber gray mold rot (CGM) disease, control value; type: in vivo; details: 100 ppm, cucumber gray mold rot
# Rhizoctonia solani AG-1 = assay: Fungicidal activity against rice sheath blight (RSB) disease, control value; details: for RSB control value (C.V.): rice sheath blight
# Puccinia recondita = assay: Fungicidal activity against wheat leaf rust (WLR) disease, control value; type: in vivo; details: wheat leaf rust
# Phytophthora infestans = assay: whole plant or invertebrate; type: in vivo; details: for TLB control value (C.V.): tomato late blight
# [2] = Pyricularia oryzae, read-out: RCB control value (C.V.)
# [3] = Rhizoctonia solani, AG1, in Oryza sativa, read-out: RSB control value (C.V.)
# [4] = Phytophthora infestans, in Solanum lycopersicum, read-out: TLB control value (C.V.)
smiles,measurement,setting,value
"CNC(=O)/C(=N/OC)c1ccccc1CON=C(C)c1ccc(C=C(F)Cl)cc1 [Example 34, (E)-2-[[[[[2-[4-(2-chloro-2-fluorovinyl)phenyl](1-methyl)methylidene]amino]oxy]methyl]phenyl]-2-methoxyimino-N-methylacetamide]",BPM control value (C.V.),Erysiphae graminis; 100 ppm,60%
same,RCB control value (C.V.),[1]; 50 ppm,90%
same,RCB control value (C.V.),[1]; 100 ppm,95%
same,CGM control value (C.V.),Botrytis cinerae,40%
same,RSB control value (C.V.),Rhizoctonia solani AG-1; 100 ppm,15%
same,WLR control value (C.V.),Puccinia recondita; 100 ppm,72%
same,TLB control value (C.V.),Phytophthora infestans; 50 ppm,35%
same,TLB control value (C.V.),Phytophthora infestans; 100 ppm,98%
"CO/N=C(/C(=O)OC)c1ccccc1CON=C(C)c1cccc(C=C(Cl)Br)c1 [Example 35, methyl-(E)-2-[[[[[2-[3-(2-bromo-2-chlorovinyl)phenyl](1-methyl)methylidene]amino]oxy]methyl]phenyl]-2-methoxyiminoacetate]",BPM control value (C.V.),Erysiphae graminis; 2 ppm,15%
same,BPM control value (C.V.),Erysiphae graminis; 10 ppm,60%
same,BPM control value (C.V.),Erysiphae graminis; 50 ppm,93%
same,BPM control value (C.V.),Erysiphae graminis; 100 ppm,95%
same,RCB control value (C.V.),[1]; 2 ppm,70%
same,RCB control value (C.V.),[1]; 10 ppm,100%
same,RCB control value (C.V.),[1]; 50 ppm,100%
same,RCB control value (C.V.),[1]; 100 ppm,100%
same,CGM control value (C.V.),Botrytis cinerae,50%
same,RSB control value (C.V.),Rhizoctonia solani AG-1; 100 ppm,10%
same,WLR control value (C.V.),Puccinia recondita; 2 ppm,100%
same,WLR control value (C.V.),Puccinia recondita; 10 ppm,100%
same,WLR control value (C.V.),Puccinia recondita; 50 ppm,100%
same,WLR control value (C.V.),Puccinia recondita; 100 ppm,100%
same,TLB control value (C.V.),Phytophthora infestans; 10 ppm,10%
same,TLB control value (C.V.),Phytophthora infestans; 50 ppm,90%
same,TLB control value (C.V.),Phytophthora infestans; 100 ppm,100%
"CNC(=O)/C(=N/OC)c1ccccc1CON=C(C)c1cccc(C=C(Cl)Br)c1 [Example 36, (E)-2-[[[[[2-[3-(2-bromo-2-chlorovinyl)phenyl](1-methyl)methylidene]amino]oxy]methyl]phenyl]-2-methoxyimino-N-methylacetamide]",BPM control value (C.V.),Erysiphae graminis; 2 ppm,100%
same,BPM control value (C.V.),Erysiphae graminis; 10 ppm,100%
same,BPM control value (C.V.),Erysiphae graminis; 50 ppm,100%
same,BPM control value (C.V.),Erysiphae graminis; 100 ppm,100%
same,RCB control value (C.V.),[1]; 2 ppm,100%
same,RCB control value (C.V.),[1]; 10 ppm,100%
same,RCB control value (C.V.),[1]; 50 ppm,100%
same,RCB control value (C.V.),[1]; 100 ppm,100%
same,CGM control value (C.V.),Botrytis cinerae,65%
same,RSB control value (C.V.),Rhizoctonia solani AG-1; 2 ppm,67%
same,RSB control value (C.V.),Rhizoctonia solani AG-1; 10 ppm,90%
same,RSB control value (C.V.),Rhizoctonia solani AG-1; 50 ppm,98%
same,RSB control value (C.V.),Rhizoctonia solani AG-1; 100 ppm,100%
same,WLR control value (C.V.),Puccinia recondita; 2 ppm,100%
same,WLR control value (C.V.),Puccinia recondita; 10 ppm,100%
same,WLR control value (C.V.),Puccinia recondita; 50 ppm,100%
same,WLR control value (C.V.),Puccinia recondita; 100 ppm,100%
same,TLB control value (C.V.),Phytophthora infestans; 2 ppm,30%
same,TLB control value (C.V.),Phytophthora infestans; 10 ppm,80%
same,TLB control value (C.V.),Phytophthora infestans; 50 ppm,100%
same,TLB control value (C.V.),Phytophthora infestans; 100 ppm,100%
"CO/N=C(/C(=O)OC)c1ccccc1CON=C(C)c1ccc(C=C(Cl)Br)cc1 [Example 37, methyl-(E)-2-[[[[[2-[4-(2-bromo-2-chlorovinyl)phenyl](1-methyl)methylidene]amino]oxy]methyl]phenyl]-2-methoxyiminoacetate]",BPM control value (C.V.),Erysiphae graminis; 2 ppm,35%
same,BPM control value (C.V.),Erysiphae graminis; 10 ppm,90%
same,BPM control value (C.V.),Erysiphae graminis; 50 ppm,93%
same,BPM control value (C.V.),Erysiphae graminis; 100 ppm,95%
same,RCB control value (C.V.),[1]; 2 ppm,75%
same,RCB control value (C.V.),[1]; 10 ppm,90%
same,RCB control value (C.V.),[1]; 50 ppm,100%
same,RCB control value (C.V.),[1]; 100 ppm,100%
same,CGM control value (C.V.),Botrytis cinerae,50%
same,RSB control value (C.V.),Rhizoctonia solani AG-1; 100 ppm,90%
same,WLR control value (C.V.),Puccinia recondita; 2 ppm,100%
same,WLR control value (C.V.),Puccinia recondita; 10 ppm,100%
same,WLR control value (C.V.),Puccinia recondita; 50 ppm,100%
same,WLR control value (C.V.),Puccinia recondita; 100 ppm,100%
same,TLB control value (C.V.),Phytophthora infestans; 10 ppm,10%
same,TLB control value (C.V.),Phytophthora infestans; 50 ppm,90%
same,TLB control value (C.V.),Phytophthora infestans; 100 ppm,100%
"CNC(=O)/C(=N/OC)c1ccccc1CON=C(C)c1ccc(C=C(Cl)Br)cc1 [Example 38, (E)-2-[[[[[2-[4-(2-bromo-2-chlorovinyl)phenyl](1-methyl)methylidene]amino]oxy]methyl]phenyl]-2-methoxyimino-N-methylacetamide]",BPM control value (C.V.),Erysiphae graminis; 2 ppm,95%
same,BPM control value (C.V.),Erysiphae graminis; 10 ppm,98%
same,BPM control value (C.V.),Erysiphae graminis; 50 ppm,100%
same,BPM control value (C.V.),Erysiphae graminis; 100 ppm,100%
same,RCB control value (C.V.),[1]; 2 ppm,100%
same,RCB control value (C.V.),[1]; 10 ppm,100%
same,RCB control value (C.V.),[1]; 50 ppm,100%
same,RCB control value (C.V.),[1]; 100 ppm,100%
same,CGM control value (C.V.),Botrytis cinerae,65%
same,RSB control value (C.V.),Rhizoctonia solani AG-1; 2 ppm,80%
same,RSB control value (C.V.),Rhizoctonia solani AG-1; 10 ppm,95%
same,RSB control value (C.V.),Rhizoctonia solani AG-1; 50 ppm,98%
same,RSB control value (C.V.),Rhizoctonia solani AG-1; 100 ppm,100%
same,WLR control value (C.V.),Puccinia recondita; 2 ppm,100%
same,WLR control value (C.V.),Puccinia recondita; 10 ppm,100%
same,WLR control value (C.V.),Puccinia recondita; 50 ppm,100%
same,WLR control value (C.V.),Puccinia recondita; 100 ppm,100%
same,TLB control value (C.V.),Phytophthora infestans; 2 ppm,30%
same,TLB control value (C.V.),Phytophthora infestans; 10 ppm,80%
same,TLB control value (C.V.),Phytophthora infestans; 50 ppm,100%
same,TLB control value (C.V.),Phytophthora infestans; 100 ppm,100%
"CO/N=C(/C(=O)OC)c1ccccc1COc1ccc(C=C(Cl)Cl)cc1Cl [Example 39, methyl-(E)-2-(2-((2-chloro-4-(2,2-dichlorovinyl)phenoxy)methyl)phenyl)-2-methoxyiminoacetate]",pest or weed control at 2 ppm,"Erysiphae graminis; Hordeum vulgare, 168 h, 2 ppm, read-out: BPM control value (C.V.)",100%
same,pest or weed control at 10 ppm,"Erysiphae graminis; Hordeum vulgare, 168 h, 10 ppm, read-out: BPM control value (C.V.)",100%
same,pest or weed control at 50 ppm,"Erysiphae graminis; Hordeum vulgare, 168 h, 50 ppm, read-out: BPM control value (C.V.)",100%
same,pest or weed control at 100 ppm,"Erysiphae graminis; Hordeum vulgare, 168 h, 100 ppm, read-out: BPM control value (C.V.)",100%
same,pest or weed control at 2 ppm,[1]; [2],100%
same,pest or weed control at 10 ppm,[1]; [2],100%
same,pest or weed control at 50 ppm,[1]; [2],100%
same,pest or weed control at 100 ppm,[1]; [2],100%
same,pest or weed control at 100 ppm,"Botrytis cinerae; Botrytis, read-out: CGM control value (C.V.)",75%
same,pest or weed control at 2 ppm,Rhizoctonia solani AG-1; [3],100%
same,pest or weed control at 10 ppm,Rhizoctonia solani AG-1; [3],100%
same,pest or weed control at 50 ppm,Rhizoctonia solani AG-1; [3],100%
same,pest or weed control at 100 ppm,Rhizoctonia solani AG-1; [3],100%
same,pest or weed control at 2 ppm,"Puccinia recondita; 2 ppm, read-out: WLR control value (C.V.)",100%
same,pest or weed control at 10 ppm,"Puccinia recondita; 10 ppm, read-out: WLR control value (C.V.)",100%
same,pest or weed control at 50 ppm,"Puccinia recondita; 50 ppm, read-out: WLR control value (C.V.)",100%
same,pest or weed control at 100 ppm,"Puccinia recondita; 100 ppm, read-out: WLR control value (C.V.)",100%
same,pest or weed control at 2 ppm,Phytophthora infestans; [4],100%
same,pest or weed control at 10 ppm,Phytophthora infestans; [4],100%
same,pest or weed control at 50 ppm,Phytophthora infestans; [4],100%
same,pest or weed control at 100 ppm,Phytophthora infestans; [4],100%
